US8142782B2, “EGFR inhibitors promote axon regeneration” (Children's Medical Center Corporation, priority 2005, dated 2012)

Tests used:
[1] = test system: PC12 cells; settings: cultured PC12 cells; cited from earlier work
[2] = test system: PC12 cell lines with reduced EGFR signaling; settings: cited from earlier work
[3] = test system: CGNs; test: Neurite outgrowth assay of P7-9 CGNs on control and myelin inhibitor substrates; format: cell-based; settings: AG1288 1 μM, AG1478 10 nM, PD168393 10 nM; 20 hr; about 500 neurons per condition
Experimental: (§1) To confirm the involvement of EGFR kinase in myelin inhibition, we tested two well-characterized EGFR inhibitors with distinctive mechanisms of action, AG1478 and PD168393, and a non-receptor tyrosine kinase inhibitor, AG1288, in the outgrowth assay. P7-9 CGNs were plated on control and immobilized myclin substrate and grown in the presence of AG1288 (1 μM), AG1478 (10 nM) and PD168393 (10 nM) for 20 hr (8, 10). Cells were fixed in paraformaldehyde and stained with anti-tubulin antibody (Tuj1, Covance) to visualize and quantitate neurite length. […] Approximately 500 neurons were counted for each condition from at least 3 independent experiments. All AG1478 and PD168393 treatments on inhibitors were significant. In contrast, none of the treatments affected either the neurite outgrowth on a control poly-D-lysine (PDL) substrate or neuronal survival. Similarly, EGFR kinase inhibitors were able to block myelin neurite outgrowth inhibition in retinal explant cultures grown within a collagen matrix laden with myelin. P5-6 mouse retinas were dissected and cut into small explants on a tissue chopper. The resultant explants were cultured within a collagen matrix with and without myelin (10 μg/ml) in the presence or absence of PD168393 (10 nM) for 72 hrs. Explants were fixed and stained with anti-tubulin antibodies.

[4] = test system: dorsal root ganglion (DRG) neurons; test: Neurite outgrowth assay of DRG neurons on myelin inhibitor substrates; format: cell-based
[5] = test system: lesioned optic nerve fibers; format: in vivo
Description: The finding that inhibiting neuronal EGFR activity could efficiently block the inhibitory activity of both myelin inhibitors and CSPGs prompted us to examine whether EGFR inhibitors introduced at a CNS lesion site could promote axon regeneration in a model of optic nerve crushing (28). All animal experiments were done in accordance with protocols approved by the institutional animal care and use committee at Schepens Eye Research Institute. Adult mouse optic nerves were exposed behind the eyeball and crushed. Immediately after injury in adult mice, Gelfoam soaked in a solution containing the EGFR inhibitor PD168393 or 0.1% DMSO (control) was placed against the crush site of the nerve and replaced every three days for the first six days of the study. Animals were sacrificed two weeks post injury followed by transcardial perfusion with 4% paraformaldehyde. Optic nerves were cryosectioned at 10 μm and stained with an anti-GAP43 antibody (Chemicon) to detect regenerating axons (28). Little regeneration was detected in DMSO-treated control mice. […] To test the possibility that the observed axon regrowth of retinal ganglion neurons (RGCs) after PD168393 treatment was a consequence of improved cell survival, we stained retinal sections with the anti-tubulin Tuj1 antibody, which stains RGCs in the retina, and counted surviving RGCs. […]

[6] = test system: Retinal explants; test: Retinal explant neurite outgrowth in collagen gels with CSPGs; format: cell-based; settings: CSPGs 200 ng/ml in collagen gels; PD168393 100 nM; three days
Experimental: In addition to myelin inhibitors, chondroitin sulfate proteoglycans (CSPGs) in the glial scar represent a major hurdle for regenerating axons. […] Retinal explants were grown in collagen gels with and without CPSGs (200 ng/ml, Chemicon) and PD168393 (100 nM) for three days, fixed and stained with anti-tubulin antibodies. […] In contrast, neither growth cone collapse nor repulsive responses induced by Sema3A were affected by EGFR inhibitors.

[7] = test system: P5-6 mouse retinal explants; test: Retinal explant outgrowth in collagen matrix laden with myelin; format: cell-based; settings: myelin 10 μg/ml in collagen matrix; PD168393 10 nM; 72 hrs; Student's t test P<0.0001
Experimental: as §1

[8] = test system: EGFR; test: EGFR phosphorylation in serum-starved CGNs (immunoblot of neuronal lysates); format: cell-based; settings: for effect on EGFR phosphorylation subsequent to Nogo-66 treatment: CGNs, Nogo-66-elicited trans-activation; for effect on direct EGFR activation by EGF: EGF stimulation; for induction of EGFR phosphorylation: serum-starved CGNs, Nogo-66 and OMgp at 5 nM
Description: To examine whether myelin inhibitors directly influence the activity of EGFR in myelin-responsive neurons, we treated serum-starved CGNs with recombinant soluble myelin inhibitors and assessed the EGFR receptor activity.
Previously, we developed a truncated form of NgR that has the ability to bind to ligands but not its signaling co-receptors (8-10, 12). When over-expressed, the truncated receptor can compete with endogenous NgR for coreceptor binding and thus block inhibitor-induced signaling pathways (8-10, 12). […] It is known that in addition to activation by its cognate ligands, EGFR phosphorylation can also result from “trans-activation” by other signaling pathways (22, 23). For example, angiotensin II acts through the angiotensin AT1 receptor, to promote growth of cardiomyocytes via trans-activation of the EGFR and activation of MAP kinase (23). […] We examined whether any of these mechanism(s) are involved in the NgR-dependent EGFR trans-activation by inhibiting specific signaling pathways pharmacologically. […]

[9] = test system: CNS neurons; settings: CNS neurons overexpressing SOCS2; cited from earlier work
[10] = test system: cerebellar granule cells (CGNs) on immobilized myelin substrate; test: Screen of about 400 small molecules in a neurite outgrowth assay of CGNs on immobilized myelin; format: cell-based; settings: 5×10^4 CGNs per well on immobilized myelin, grown overnight; 10-fold dilutions centered on IC50; scored by two blind observers
Experimental: We screened approximately 400 well-characterized small molecules in a neurite outgrowth assay of cerebellar granule cells (CGNs) on immobilized myelin substrate. Myelin was immobilized on 96-well plates using published methods (8). Individual compounds from a signaling molecule targeted drug library (TOCRIS) were diluted by 10-fold dilutions centered on their IC50 values, in concentrations typically varying from low nanomolar to micromolar, and transferred to culture wells with 5×10^4 CGNs per well. Cells were grown overnight, fixed in paraformaldehyde, and stained with tubulin antibodies. Outgrowth was independently scored by two blind observers. Positively scored compounds were picked for further verifications. Each compound was evaluated at a 10^4 dilution range centered on its IC50 value to ensure effective concentrations for each drug tested. Several internal controls, including cAMP analogues, phosphodiesterase inhibitors, and a Rho-associated protein kinase inhibitor were identified in the screen, confirming previous findings and validating our approach.

[11] = test system: neurons of the crushed right internal parietal (RIP) nerve; settings: pond snail Lymnaea stagnalis; cited from earlier work

Molecule: COc1cc2ncnc(Nc3cccc(Cl)c3)c2cc1OC [AG1478]
- effect on versican V1-induced neuronal differentiation [1]: significantly blocks differentiation
- cytotoxicity [2]: cytotoxic
- promotion of neurite outgrowth from CGNs on whole myelin and individual myelin inhibitors (Nogo-66, MAG) [3]: effectively promoted neurite outgrowth
- promotion of neurite outgrowth from DRG neurons on whole myelin and individual myelin inhibitors (Nogo-66, MAG) [4]: effectively promoted neurite outgrowth

Molecule: C=CC(=O)Nc1ccc2ncnc(Nc3cccc(Br)c3)c2c1 [PD168393]
- increase in the number of regenerating axons compared to control mice ([5]; adult mice, measured 0.25 mm beyond the injury site, two weeks post injury, GAP43 staining, DMSO control): 9 fold
- effect on RGC survival ([5]; mouse, in vivo): No detectable effect
- neurite length of retinal explants compared to CSPGs alone [6]: significantly increased neurite length
- outgrowth of retinal explants in myelin cultures compared to myelin alone [7]: significantly promoted outgrowth of explants
- promotion of neurite outgrowth from CGNs on whole myelin and individual myelin inhibitors (Nogo-66, MAG) [3]: effectively promoted neurite outgrowth
- promotion of neurite outgrowth from DRG neurons on whole myelin and individual myelin inhibitors (Nogo-66, MAG) [4]: effectively promoted neurite outgrowth

Molecule: O=C(O)CN(CCOCCOCCN(CC(=O)O)CC(=O)O)CC(=O)O [EGTA]
- effect on EGFR phosphorylation subsequent to Nogo-66 treatment [8]: significantly decreased EGFR phosphorylation
- effect on direct EGFR activation by EGF [8]: neither EGTA nor BAPTA-AM had any effect

Molecule: Nc1ncnc2c1cnn2-c1ccccc1 [PP3]
- effect on neurite outgrowth promoted by SOCS2 overexpression [9]: outgrowth is blocked

Molecule: N#C/C(=C\c1ccc(O)c(O)c1)C(N)=O [Tyrphostin A46]
- ability to counter the effects of myelin inhibition on neurite outgrowth [10]: showed the greatest ability to counter the effects of myelin inhibition

Molecule: C[C@@H](NC(=O)/C(C#N)=C/c1ccc(O)c(O)c1)c1ccccc1 [Tyrphostin B44(−)]
- ability to counter the effects of myelin inhibition on neurite outgrowth [10]: showed the greatest ability to counter the effects of myelin inhibition

Molecule: Cn1c2ccccc2c2c3c(c4c5ccccc5n(CCC#N)c4c21)CNC3=O [Go6976]
- effect on EGFR phosphorylation subsequent to Nogo-66 treatment [8]: had no effect

Molecule: TAPI
- effect on EGFR phosphorylation subsequent to Nogo-66 treatment [8]: had no effect

Molecule: N#C/C(=C\c1ccc(O)c(O)c1)C(N)=S [Tyrphostin A47]
- ability to counter the effects of myelin inhibition on neurite outgrowth [10]: showed the greatest ability to counter the effects of myelin inhibition

Molecule: CNC(=O)[C@H](Cc1c[nH]c2ccccc12)NC(=O)[C@@H](CC(=O)NO)CC(C)C [GM6001]
- effect on EGFR phosphorylation subsequent to Nogo-66 treatment [8]: had no effect

Molecule: COc1cc2ncnc(Nc3cccc(Br)c3)c2cc1OC [PD153035]
- effect on EGF-promoted axonal regeneration [11]: counteracts the effect of EGF on axonal regeneration

Molecule: CC(=O)OCOC(=O)CN(CC(=O)OCOC(C)=O)c1ccccc1OCCOc1ccccc1N(CC(=O)OCOC(C)=O)CC(=O)OCOC(C)=O [BAPTA-AM]
- effect on EGFR phosphorylation subsequent to Nogo-66 treatment [8]: significantly decreased EGFR phosphorylation
- effect on direct EGFR activation by EGF [8]: neither EGTA nor BAPTA-AM had any effect

Molecule: N#C/C(=C\c1ccc(O)c(O)c1)C(=O)NCc1ccccc1 [AG490]
- effect on neurite outgrowth promoted by SOCS2 overexpression [9]: outgrowth is blocked

Molecule: pertussis toxin
- effect on EGFR phosphorylation subsequent to Nogo-66 treatment [8]: had no effect

Molecule: CC(C)(C)n1nc(-c2ccc(Cl)cc2)c2c(N)ncnc21 [PP2]
- effect on EGFR phosphorylation subsequent to Nogo-66 treatment [8]: had no effect

B1: OMgp: recombinant soluble myelin inhibitor, oligodendrocyte myelin glycoprotein (protein, UniProt P23515 25-417, looked up)
Oligodendrocyte-myelin …: ICPLQCICTERHRHVDCSGRNLSTLPSGLQENIIHLNLSYNHFTDLHNQLTQYTNLRTLDISNNRLESLPAHLPRSLWNMSAANNNIKLLDKSDTAYQWNLKYLDVSKNMLEKVVLIKNTLRSLEVLNLSSNKLWTVPTNMPSKLHIVDLSNNSLTQILPGTLINLTNLTHLYLHNNKFTFIPDQSFDQLFQLQEITLYNNRWSCDHKQNITYLLKWMMETKAHVIGTPCSTQISSLKEHNMYPTPSGFTSSLFTVSGMQTVDTINSLSVVTQPKVTKIPKQYRTKETTFGATLSKDTTFTSTDKAFVPYPEDTSTETINSHEAAAATLTIHLQDGMVTNTSLTSSTKSSPTPMTLSITSGMPNNFSEMPQQSTTLNLWREETTTNVKTPLPS
- induction of EGFR phosphorylation [8]: triggered EGFR phosphorylation as early as 1 min post-stimulation

B2: Semaphorin3A: chemorepellant (protein, UniProt Q14563 21-771, looked up)
Semaphorin-3A: NYQNGKNNVPRLKLSYKEMLESNNVITFNGLANSSSYHTFLLDEERSRLYVGAKDHIFSFDLVNIKDFQKIVWPVSYTRRDECKWAGKDILKECANFIKVLKAYNQTHLYACGTGAFHPICTYIEIGHHPEDNIFKLENSHFENGRGKSPYDPKLLTASLLIDGELYSGTAADFMGRDFAIFRTLGHHHPIRTEQHDSRWLNDPKFISAHLISESDNPEDDKVYFFFRENAIDGEHSGKATHARIGQICKNDFGGHRSLVNKWTTFLKARLICSVPGPNGIDTHFDELQDVFLMNFKDPKNPVVYGVFTTSSNIFKGSAVCMYSMSDVRRVFLGPYAHRDGPNYQWVPYQGRVPYPRPGTCPSKTFGGFDSTKDLPDDVITFARSHPAMYNPVFPMNNRPIVIKTDVNYQFTQIVVDRVDAEDGQYDVMFIGTDVGTVLKVVSIPKETWYDLEEVLLEEMTVFREPTAISAMELSTKQQQLYIGSTAGVAQLPLHRCDIYGKACAECCLARDPYCAWDGSACSRYFPTAKRRTRRQDIRNGDPLTHCSDLHHDNHHGHSPEERIIYGVENSSTFLECSPKSQRALVYWQFQRRNEERKEEIRVDDHIIRTDQGLLLRSLQQKDSGNYLCHAVEHGFIQTLLKVTLEVIDTEHLEELLHKDDDGDGSKTKEMSNSMTPSQKVWYRDFMQLINHPNLNTMDEFCEQVWKRDRKQRRQRPGHTPGNSNKWKHLQENKKGRNRRTHEFERAPRSV
- induction of EGFR phosphorylation [8]: neither a control alkaline phosphatase (AP) protein nor the chemorepellant Semaphorin3A (Sema3A) induced detectable levels
